Read-outs that look alike come from different tables or passages of the source.
How the values were obtained:
ARPE-19 cells [1] = assay: Fibronectin deposition assay in TGFβ-stimulated ARPE-19 cells; assay type: cell-based, human; settings: for IC50: ARPE-19 cells stimulated with TGFβ, incubated 96 hours
Description: ARPE-19 cells were plated into 96-well plates (10,000 cells/well) and allowed to attach. Media was removed and replaced with the media specified in the “Cell Culture” section above, without FBS. Cells were treated for four days±TGFβ (10 ng/mL) and 10 μM loxapine. Cells were fixed with 10% neutral buffered formalin (Sigma-Aldrich) for 15 minutes. Cells were permeabilized with 0.25% Triton X-100 (Sigma-Aldrich) and blocked with 1% BSA for 1 hour. Cells were incubated with mouse monoclonal IgG3 primary antibodies against fibronectin (Santa Cruz Biotechnology), which were diluted 1:400 in 0.25% Triton X-100 (Sigma-Aldrich) with 1% BSA. Cells were incubated with primary antibodies either in 4° C. overnight or at room temperature for 2 hours. Cells were washed with PBS (Gibco), then incubated for 1 hour with Alexa Fluor® 488 donkey anti-mouse IgG (H+L) secondary antibodies (Life Technologies) and DAPI (Thermo Fisher Scientific), which were each diluted 1:1000 in 0.25% Triton X-100 (Sigma-Aldrich) with 1% BSA. Cells were washed again with PBS (Gibco). Immunofluorescence was measured using a Cytation 5 imaging reader (BioTek).
The compounds of this Example were tested using the fibronectin deposition assay described in Example 1. In brief, ARPE-19 cells were stimulated with TGFβ+/−the indicated concentration of each compound. Incubated 96 hours Fixed and immunostained for fibronectin.
In brief, ARPE-19 cells were stimulated with TGFβ+/−the indicated concentration of each compound. Incubated 96 hours, fixed and immunostained for fibronectin.

[2] = system: profibrotic gene expression (COL1A1, ACTA2, FN1) in ARPE-19 cells; assay: Profibrotic gene expression by qPCR in ARPE-19 cells treated ±TGFβ; assay type: cell-based, human; settings: ARPE-19 + TGFβ (10 ng/mL), 24 hours; antagonists 10 μM, pramipexole 1 μM; compared to TGFβ only
Description: ARPE-19 cells were plated into 12 well plates (100,000 cells/well) and allowed to attach. Media was removed and replaced with the media specified in the “Cell Culture” section above, minus FBS. Cells were treated for 24 hours±TGFβ (10 ng/mL), 1 μM pramipexole, and 10 μM loxapine. RNA was isolated using the RNeasy Plus Mini Kit (Qiagen) and the manufacturer's protocol. Isolated RNA was converted to cDNA using the SuperScript VILO cDNA Synthesis Kit (Invitrogen) and the PTC-200 Peltier Thermal Cycler (MJ Research). Quantitative PCR (qPCR) was performed using FastStart Essential DNA Green Master (Roche) and LightCycler 96 (Roche).
After identifying the preferential expression of DRD2 in ARPE-19 cells, the regulatory effects of these receptors on fibrotic activation were elucidated. As to D2 dopamine receptor (FIG. 2A-B), RNA isolation and qPCR were used to measure the transcript levels of fibrotic markers in ARPE-19 cells treated±TGFβ, pramipexole (D2 agonist), and loxapine (D2 antagonist). […] In experiments combining pramipexole and loxapine along with TGFβ negates the activity of the molecules alone, confirming their activity is being driven by their interaction with the D2 receptor (FIG. 2B).
The effect of solnitropine, solupine, and loxapine on the expression of profibrotic genes COL1A1 and FN1 were evaluated as described in Example 1 (FIGS. 7A and 7B). In brief, ARPE-19 cells were treated±TGFβ in the presence of either loxapine, solnitropine, or solupine. Gene expression was measured by qPCR on RNA isolated from the treated cells 24 h after treatment.

ARPE-19 cells [3] = assay: PDGF-CC stimulated proliferation; assay type: cell-based, human; settings: ARPE-19, 10 ng/mL PDGF-CC; compared with methotrexate
Description: Effect of methotrexate, solupine, sertindole, penfluridol, pimozide, and fluspirilene, on FGF-β stimulated proliferation was determined. Methods: ARPE-19 cells were seeded into 96-well plates (1,000 cells/well) and incubated for 6 h at 37° C. After, media was removed and exchanged for media containing 0% fetal bovine serum+/−10 ng/mL FGF-β, and the indicated concentration of compound. Compound concentrations were selected based on the potencies observed in FIGS. 4A-6B, and 9A-9C. After the indicated number of hours, cells were fixed in 4% formalin, and DAPI stained. Cells were then imaged using an automated microscope (Biotek Cytation5) and the number of DAPI nuclei were quantified using onboard software (Gen5). Raw cells/field of view are plotted. N=3. […] FGF-β levels are elevated in patients with PVR.
Effect of methotrexate and solupine on PDGF-CC stimulated proliferation was determined. Methods: experiments were carried out as described in Example 6, except 10 ng/mL PDGF-CC was used to stimulate proliferation. […] PDGF-CC levels are elevated in patients with PVR.

ARPE-19 cells [4] = assay: Solupine functional stability (stored saline stock vs fresh, FGF-β proliferation readout); assay type: cell-based, human; settings: dissolved in saline, opaque sealed container, 4° C.; potency compared with fresh stock in FGF-β proliferation
Description: A powder stock of solupine was dissolved in saline and stored in an opaque, sealed container at 4° C. for 90 days. The potency and efficacy of this stored stock was then compared to freshly solubilized stock of solupine dissolved in saline. ARPE-19 cells were cultured for 4 days with FGF-β and the indicated concentration of fresh or 90-day-old solupine stock. Cells were then assayed for proliferation as described herein for FIGS. 10 and 11. N=3. Results: solupine stock is functionally stable for at least 90 days under these conditions.

[5] = system: Human conjunctival fibroblasts; assay: Fibronectin deposition by conjunctival fibroblasts; assay type: cell-based; settings: conditions of FIGS. 4-6, indicated concentrations of solupine
Description: Human conjunctival fibroblasts were cultured under the same conditions described in FIGS. 4-6 and fibronectin deposition was measured after treating with the indicated concentrations of solupine. N=3.

ARPE-19 cells [6] = assay: Fibronectin deposition in ARPE-19 cells stimulated with a cocktail of profibrotic ligands; assay type: cell-based, human; settings: TGF-β1, TGF-β2, TNF-α, FGF-β, PDGF-CC all at 10 ng/mL, 10 μM solupine
Description: ARPE-19 cells were cultured as described in FIGS. 4-6 and fibronectin was measured after stimulating the cells with a combination of profibrotic soluble factors including: T1=TGF-β1, T2=TGF-β2, Tα=TNF-α, Fβ=FGF-β, PC=PDGF-CC, (all at 10 ng/mL). +/−10 μM solupine. N=3. Results: solupine maintains its efficacy at blocking RPE cell fibronectin deposition when profibrotic factors are combined in a cocktail.

mouse eye = assay: Toxicology scoring of mouse eye injected with solupine; assay type: in vivo; settings: mice, 14 days
Description: Mice were injected with 1 μL of PBS (FIG. 17A), 1 μL PBS containing 10 μg/0.05 mL solupine (FIG. 17B), or 1 μL PBS containing 30 μg/0.05 mL solupine (FIG. 17C). The eyes were then analyzed by a pathologist and scored for the indicated observations of ocular toxicities. over the course of 14 days. Work was performed under contract with Labcorp. N=3-6 mice/group.

[7] = fibronectin deposition, read-out: IC50
[8] = Homo sapiens, fibronectin deposition, read-out: IC50
[9] = Homo sapiens, read-out: IC50 values (fibronectin deposition)

| SMILES | IC50 (ARPE-19 cells [1]; [8]) | also measured |
| --- | --- | --- |
| CN1CCN(C2=Nc3cc(O)ccc3Oc3ccc(Cl)cc32)CC1 [8-OH-loxapine] |  | IC50 (ARPE-19 cells [1]; [7]): > 10 µM |
| Clc1ccc2c(c1)N=C(N1CCNCC1)c1ccccc1N2 [N-desmethyl clozapine] |  | IC50 (ARPE-19 cells [1]; [7]): ≤ 5 µM |
| Cc1cc2c(s1)Nc1ccccc1N=C2N1CCNCC1 [N-desmethyl olanzapine] |  | IC50 (ARPE-19 cells [1]; [7]): ≤ 5 µM |
| CCN1CCCC1CNC(=O)c1cc(S(=O)(=O)CC)c(N)cc1OC (stereo not shown) [amisulpride] | > 10 µM |  |
| O=C1CCc2ccc(OCCCCN3CCN(c4cccc(Cl)c4Cl)CC3)cc2N1 [aripiprazole] |  | fibronectin deposition (ARPE-19 cells [1]; ARPE-19, TGFβ, performed identically to FIGS. 4-6, N=3): blocks fibronectin deposition |
| O=C(CCCN1CCC(n2c(O)nc3ccccc32)CC1)c1ccc(F)cc1 [benperidol] | ≤ 5 µM |  |
| CCN1CCN(c2cc(-c3ccc(F)cc3)c3c(n2)CCCCCC3)CC1 [blonanserin] | 5 to 10 µM |  |
| O=C(CCCN1CC=C(n2c(=O)[nH]c3ccccc32)CC1)c1ccc(F)cc1 [droperidol] | 5 to 10 µM |  |
| CCc1cc(Cl)c(OC)c(C(=O)NC[C@@H]2CCCN2CC)c1O [eticlopride] | > 10 µM |  |
| O=C1NCN(c2ccccc2)C12CCN(CCCC(c1ccc(F)cc1)c1ccc(F)cc1)CC2 [fluspirilene] | ≤ 5 µM |  |
| CN1CCN(C2=Nc3ccccc3Oc3ccc(Cl)cc32)CC1 [loxapine] | ≤ 5 µM |  |
| O=C1[C@@H]2[C@H]3CC[C@H](C3)[C@@H]2C(=O)N1C[C@@H]1CCCC[C@H]1CN1CCN(c2nsc3ccccc23)CC1 [lurasidone] | ≤ 5 µM |  |
| CN(Cc1cnc2nc(N)nc(N)c2n1)c1ccc(C(=O)N[C@@H](CCC(=O)O)C(=O)O)cc1 [methotrexate] | > 10 µM |  |
| OC1(c2ccc(Cl)c(C(F)(F)F)c2)CCN(CCCC(c2ccc(F)cc2)c2ccc(F)cc2)CC1 [penfluridol] | ≤ 5 µM |  |
| OCCN1CCN(CCCN2c3ccccc3Sc3ccc(Cl)cc32)CC1 [perphenazine] | > 10 µM |  |
| O=c1[nH]c2ccccc2n1C1CCN(CCCC(c2ccc(F)cc2)c2ccc(F)cc2)CC1 [pimozide] | ≤ 5 µM |  |
| CN1CCC(=C2c3ccccc3CCc3sccc32)CC1 [pizotifen] | ≤ 5 µM |  |
| CCN1CCC[C@H]1CNC(=O)c1c(O)c(Cl)cc(Cl)c1OC [raclopride] | > 10 µM |  |
| CCN1CCC[C@H]1CNC(=O)c1c(OC)ccc(Br)c1OC [remoxipride] | > 10 µM |  |
| O=C1NCCN1CCN1CCC(c2cn(-c3ccc(F)cc3)c3ccc(Cl)cc23)CC1 [sertindole] | ≤ 5 µM |  |
| c1ccc2c(c1)Oc1cccnc1N=C2N1CCNCC1 [solnitropine] | ≤ 5 µM | IC50 (ARPE-19 cells [1]; [9]): ≤ 5 µM; expression of COL1A1 [2]: significantly reduced; expression of FN1 [2]: significantly reduced |
| c1ccc2c(c1)Oc1sccc1N=C2N1CCNCC1 [solupine] | ≤ 5 µM | IC50 (ARPE-19 cells [1]; [9]): ≤ 5 µM; expression of COL1A1 [2]: significantly reduced; expression of FN1 [2]: significantly reduced; potency at blocking PDGF stimulated proliferation (ARPE-19 cells [3]): more potent than methotrexate; functional stability of stock (ARPE-19 cells [4]): at least 90 days; fibronectin deposition by conjunctival fibroblasts [5]: does not block fibronectin deposition; fibronectin deposition, cocktail of profibrotic ligands (ARPE-19 cells [6]): blocks fibronectin deposition; ocular toxicity scoring (mouse eye; eye injection 1 μL PBS containing 10 μg/0.05 mL solupine): No observable toxicity; ocular toxicity scoring (mouse eye; eye injection 1 μL PBS containing 30 μg/0.05 mL solupine): No observable toxicity |
| CCN1CCCC1CNC(=O)c1cc(S(N)(=O)=O)ccc1OC (stereo not shown) [sulpiride] | > 10 µM |  |
| O=C(CCCN1CCC(n2c(=S)[nH]c3ccccc32)CC1)c1ccc(F)cc1 [timiperone] | ≤ 5 µM |  |
| CN1CCN(CCCN2c3ccccc3Sc3ccc(C(F)(F)F)cc32)CC1 [trifluoperizine] |  | IC50 (ARPE-19 cells [1]; [7]): > 10 µM |

From US20250170143A1, “METHODS OF TREATING OCULAR FIBROTIC PATHOLOGIES” (Mayo Foundation for Medical Education and Research, priority 2022, published 2025)
